Source: publication PMC5697638, “Identification of a Potent Phosphoinositide 3‐Kinase Pan Inhibitor Displaying a Strategic Carboxylic Acid Group and Development of Its Prodrugs” (Chemmedchem, 2017)

Tests used:
[1] = tested on: PC3 cells; experiment: cell-cycle analysis, propidium iodide flow cytometry; format: cell-based; conditions: 10 μM, 48 h
Experimental: Cell‐cycle analysis: For DNA content determination, PC3 cells were seeded at 4×10^5 cells per 6 cm dish in triplicate in the presence of DMEM high glucose GlutaMAXTM (Gibco), 10 % fetal bovine serum (Invitrogen) supplemented with 5000 U mL^−1 penicillin–streptomycin (Gibco). The day after seeding, cells were treated for 48 h with 10 μM 64 or DMSO. Subsequently, PC3 cells were detached with 0.1 % trypsin–EDTA (Gibco), fixed in 70 % ethanol overnight at −20 °C, and stained for 40 min at […] with PI solution, containing 0.05 % Triton X‐100, 0.1 mg mL^−1 RNase, and 25 μg mL^−1 propidium iodide. Sample were analyzed for the DNA content by using a FACS‐Calibur flow cytometer (Becton Dickinson Immunocytometry Systems, San Jose, USA). The percentages of cells in the G0/G1, S, and G2 phases were calculated.

[2] = molecular target: T1, hPI3Kδ (PIK3CD/PIK3R1) (Homo sapiens, UniProt O00329); experiment: lipid kinase assay (ADP-Glo), PI3Kδ; format: biochemical
T1 construct: purchased ProQinase, Germany 1162–1165‐1
Experimental: In vitro selection, lipid kinase assay: To determine the inhibitory activity of the new molecular entities on PI3K enzyme, a lipid kinase assay was performed: recombinant proteins (30 ng), human PI3Kα (PIK3CA/PIK3R1, #1161‐1165‐1 ProQinase–Germany), hPI3Kβ (PIK3CB wt/PIK3R1, #1168‐1165‐1 ProQinase, Germany), hPI3Kγ (PIK3CG, #1163‐0000‐1 ProQinase, Germany), hPI3Kδ (PIK3CD/PIK3R1, #1162–1165‐1 ProQinase, Germany), hPI3K‐C2α (PIK3C2A, #14‐906 Merck Millipore_Merck KGaA, Germany), hPI3K‐C2β (PIK3C2B, #14‐907 Merck Millipore_Merck KGaA, Germany), hPI3K‐c2γ (PIK3C2G, #1207‐0000‐1 ProQinase, Germany), and hVps34 (PIK3C3, #1160‐0000‐1 ProQinase, Germany), were incubated in kinase buffer {12.5 μL; 20 mM Tris‐HCl pH 7.5, 10 mM MgCl2, 10 μM ATP, 0.05 mg mL^−1 BSA, 0.5 mM EDTA, 5 mM HEPES pH 7.5, for PI3Kα,PI3Kβ, PI3Kγ, PI3Kδ, PI3KC‐2α, and PI3KC‐2γ; 15 mM MnCl2, 5 mM EGTA, 100 μM ATP, 50 mM HEPES pH 7.5, 100 mM NaCl, and 0.03 % CHAPS for PI3K‐C2β and VPS34 {BSA=bovine serum albumin; EDTA=ethylenediaminetetraacetic acid; HEPES=4‐(2‐hydroxyethyl)‐1‐piperazineethanesulfonic acid; EGTA=ethylene glycol‐bis(2‐aminoethylether)‐N,N,N′,N′‐tetraacetic acid; CHAPS=3‐[(3‐cholamidopropyl)dimethylammonio]‐1‐propanesulfonate}. In the reaction, the ATP concentration used for different PI3Ks was defined on the basis of the Michaelis–Menten kinetics of each enzyme, provided by the supplier. Reaction was performed in presence of 0.5 mg mL^−1 lipid micelles (1:1 phosphatidylinositol/phosphatidylserine) and in the absence (DMSO alone) or presence of increasing concentrations of each compound (from 0.1 nM to 30 μM). The mixture was kept at room temperature (RT) for 30 min for PI3Kα, PI3Kβ, PI3Kγ, PI3Kδ, PI3KC‐2α, and PI3KC‐2γ and for 1 h for PI3K‐C2β and PI3K‐C3. The amount of ADP produced in the reaction was measured by using the ADP‐Glo Kinase Assay kit from Promega (#V9102) and a luminescence reader (Glomax multi detection system, Promega, model number 9301‐010).
The residual PI3K lipid kinase activity in the presence of each molecule at different concentrations was related to the control, intended as the recombinant protein in the presence of DMSO alone and was expressed as a percentage. To derive the IC50 value, all data (% of lipid kinase activity) were plotted on a dose–response curve (Graph Pad software), and the IC50 was calculated by using nonlinear regression fit (equation [log agonist] versus response).

T1 sequence (O00329 whole entry): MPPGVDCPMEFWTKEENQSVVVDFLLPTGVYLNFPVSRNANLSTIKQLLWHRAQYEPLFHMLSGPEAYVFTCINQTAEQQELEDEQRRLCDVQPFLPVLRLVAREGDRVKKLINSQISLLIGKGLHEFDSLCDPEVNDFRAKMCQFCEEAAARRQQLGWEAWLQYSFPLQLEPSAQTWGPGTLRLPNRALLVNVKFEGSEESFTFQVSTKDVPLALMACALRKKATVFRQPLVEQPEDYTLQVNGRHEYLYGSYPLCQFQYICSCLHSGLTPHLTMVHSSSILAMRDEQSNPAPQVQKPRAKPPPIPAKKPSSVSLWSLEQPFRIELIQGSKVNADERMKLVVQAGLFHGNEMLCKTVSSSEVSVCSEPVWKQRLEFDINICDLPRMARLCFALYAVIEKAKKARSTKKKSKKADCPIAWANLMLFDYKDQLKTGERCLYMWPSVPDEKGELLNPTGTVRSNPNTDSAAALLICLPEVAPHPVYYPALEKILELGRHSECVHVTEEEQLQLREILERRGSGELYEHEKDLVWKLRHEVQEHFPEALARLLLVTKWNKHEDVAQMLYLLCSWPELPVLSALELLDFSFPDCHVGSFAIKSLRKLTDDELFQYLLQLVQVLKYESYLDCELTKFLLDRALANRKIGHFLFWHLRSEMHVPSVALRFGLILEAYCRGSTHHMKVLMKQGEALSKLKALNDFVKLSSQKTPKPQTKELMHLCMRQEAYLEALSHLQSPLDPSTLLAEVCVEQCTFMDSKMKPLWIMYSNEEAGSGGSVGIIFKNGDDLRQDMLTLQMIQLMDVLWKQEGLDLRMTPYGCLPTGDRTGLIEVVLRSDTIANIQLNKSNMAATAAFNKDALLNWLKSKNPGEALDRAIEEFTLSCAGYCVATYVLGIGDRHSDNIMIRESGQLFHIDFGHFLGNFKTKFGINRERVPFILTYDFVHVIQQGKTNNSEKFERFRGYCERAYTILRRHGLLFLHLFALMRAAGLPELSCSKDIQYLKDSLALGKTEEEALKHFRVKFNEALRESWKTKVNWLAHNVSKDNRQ
T1 sequence (P27986 whole entry partner): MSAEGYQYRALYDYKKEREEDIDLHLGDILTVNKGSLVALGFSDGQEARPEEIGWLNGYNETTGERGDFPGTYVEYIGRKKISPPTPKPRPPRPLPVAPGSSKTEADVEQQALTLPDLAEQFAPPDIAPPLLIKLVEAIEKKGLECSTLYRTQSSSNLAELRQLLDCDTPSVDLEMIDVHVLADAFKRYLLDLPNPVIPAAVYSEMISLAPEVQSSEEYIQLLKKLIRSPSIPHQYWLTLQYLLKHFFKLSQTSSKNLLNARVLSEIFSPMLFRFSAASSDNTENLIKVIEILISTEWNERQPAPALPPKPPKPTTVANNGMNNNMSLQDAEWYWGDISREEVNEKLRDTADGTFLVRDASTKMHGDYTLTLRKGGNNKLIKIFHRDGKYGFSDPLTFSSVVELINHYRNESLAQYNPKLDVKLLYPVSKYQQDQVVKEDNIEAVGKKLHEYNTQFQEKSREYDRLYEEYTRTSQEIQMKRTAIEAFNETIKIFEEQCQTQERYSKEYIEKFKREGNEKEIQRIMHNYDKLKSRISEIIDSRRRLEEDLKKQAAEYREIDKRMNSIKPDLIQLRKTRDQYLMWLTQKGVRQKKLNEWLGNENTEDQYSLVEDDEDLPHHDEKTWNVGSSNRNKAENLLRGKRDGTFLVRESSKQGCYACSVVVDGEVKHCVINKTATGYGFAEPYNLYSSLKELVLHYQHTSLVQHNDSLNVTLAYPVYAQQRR

For `COC(=O)c1cccc(Cn2cc(-c3cccc4c(=O)cc(N5CCOCC5)[nH]c34)nn2)c1` [Compound 64, Methyl 3‐{[4‐(2‐morpholino‐4‐oxo‐1,4‐dihydroquinolin‐8‐yl)‐1H‐1,2,3‐triazol‐1‐yl]methyl}benzoate], the “effect on cell cycle” value [1] was “induce cell‐cycle arrest”.
In the case of `O=C(O)c1cccc(Cn2cc(-c3cccc4c(=O)cc(N5CCOCC5)[nH]c34)nn2)c1` [Compound 37, 3‐{[4‐(2‐Morpholino‐4‐oxo‐1,4‐dihydroquinolin‐8‐yl)‐1H‐1,2,3‐triazol‐1‐yl]methyl}benzoic acid], the IC50 ([2]; Table 2, mean of at least three determinations, 95 % confidence intervals) is reported as 19 ± 4 nM and the inhibition at 1 µM ([2]; determined at 1 μM, at least triplicate, read-out: Inhibitory activity, PI3K isoform δ) is reported as > 50%.
